Results on 14 molecules are retold here after US20200163913A1 (Shanghai Huali Biomedical Co., Ltd., priority 2017, published 2020).

The term IC50 denotes the concentration that gives 50% inhibition. The term melting point denotes the temperature, or range, at which the solid turns liquid.

Read-outs that look alike come from different tables or passages of the source.

Data set [1] deals with human cervical cancer cell HeLa. In words: CCK-8 cell proliferation inhibition, HeLa. It is filed as cell-based. Conditions: Homo sapiens, HeLa, 72 h, read-out: IC50 Hela. As for the experimental part:
(§1) Take more than 90% of live cells for experiments. Cell proliferation inhibition test uses EnoGeneCell™ Counting Kit-8 (CCK-8) cell viability detection kit. Cells are digested and counted to make a cell suspension with a concentration of 1×10^5 cells/mL, 100 μL of cell suspension (1×10^4 cells per well) was added to each well of a 96-well plate; Incubate in a 5% CO2 incubator for 24 hours; add 100 μL of the corresponding drug-containing culture medium to each well, and set a negative control group, a vehicle control group, and a positive control group, with 5 replicates in each group; place the 96-well plate at 37° C.

Data set [2] has as its system human lung cancer cell A549. In words: CCK-8 cell proliferation inhibition, A549. As to conditions: read-out: IC50 A549. Type of data set: cell-based. As for the experimental part: as §1
Data set [3] has as its system human colon cancer cell HCT-116. Description: CCK-8 cell proliferation inhibition, HCT-116. Type of data set: cell-based. Conditions: Homo sapiens, HCT-116, 72 h, read-out: IC50 HTC116. As for the experimental part:
as §1

The test system of data set [4] is human liver cancer cell HepG2. Description: CCK-8 cell proliferation inhibition, HepG2. It is filed as cell-based. As to conditions: Homo sapiens, HepG2, 72 h, read-out: IC50 HepG2. As for the experimental part:
as §1

Data set [5] relates to human gastric cancer cell MKN45. In words: CCK-8 cell proliferation inhibition, MKN45. As to conditions: MKN-45, 72 h, read-out: IC50 MKN45. It is filed as cell-based. The procedure:
as §1

For data set [6], the system named is human gastric cancer cell MGC-803. In words: CCK-8 cell proliferation inhibition, MGC-803. Type of data set: cell-based. As to conditions: MGC-803, 72 h, read-out: IC50 MGC803. The procedure: as §1
The subject of another data set is Tubulin. Description: Tubulin polymerization activity test. Type of data set: biochemical. Conditions: tubulin 4.8 mg/ml, 37° C., 340 nm; read-out: IC50 (Table 3, tubulin polymerization test). As for the experimental part:
Tubulin (4.8 mg/ml) protein was mixed with the test compound in a PEM buffer (100 mM PIPES, 1 mM MgCl2 and 1 mM EGTA) containing 1 mM GTP and 5% glycerol. A SPECTRA MAX 190 (Molecular Device) spectrophotometer was used to monitor the microtubule polymerization at 37° C. by light scattering at 340 nm, and the microtubule polymerization was calculated from the absorbance value. Each sample was tested three times at ten different concentrations.

`COc1ccc(/C=C/c2cc(OC)c(OC)c(OC)c2)cc1NS(N)(=O)=O` [Compound A5-2, (E)-3,4,5-trimethoxy-4′-methoxy-3′-aminosulfamate stilbene] showed a melting point of 157.9 to 161.1 °C. Moreover, the IC50 in data set [1] (CCK-8, 72 h) came out at 0.38 µM. Also, the IC50 in data set [2] (A549, CCK-8, 72 h) came to 7.42 µM. Also, the IC50 in data set [3] (CCK-8, 72 h) came out at 8.64 µM. Moreover, in data set [4] (CCK-8, 72 h), the IC50 came to 7.53 µM. In addition, the IC50 in data set [5] (CCK-8, 72 h) was 6.19 µM. Besides, in data set [6] (CCK-8, 72 h), the IC50 turned out to be 18.9 µM.
`COc1cc(/C=C/c2ccc(OC(F)F)c(OS(N)(=O)=O)c2)cc(OC)c1OC` [Compound A3-2, (E)-3,4,5-trimethoxy-4′-difluoromethoxy-3′-sulfamate stilbene] came in with a melting point of 145.5 to 148.6 °C. The concentration for half-maximal inhibition (IC50) in data set [1] came out at 8.42 µM. The IC50 in data set [2] (A549, 72 h) was determined as 28.2 µM. Moreover, the IC50 in data set [3] was found to be 12.8 µM. Further, the IC50 in data set [4] came out at 5.54 µM. For the same molecule, the IC50 in data set [5] amounted to 9.24 µM. For the same molecule, the IC50 in data set [6] worked out at 13.8 µM. Further, the IC50 in the data set with Tubulin was 12.5 µM.
For `CNS(=O)(=O)Oc1cc(/C=C\c2cc(OC)c(OC)c(OC)c2)ccc1OC` [Compound A1-4, (Z)-3,4,5-trimethoxy-4′-methoxy-3′-N-methylsulfamate stilbene], the melting point lay in the range of 118.4 to 121.6 °C. Further, the IC50 in data set [1] is 0.317 µM. For the same molecule, the IC50 in data set [2] (A549, 72 h) was determined as 0.269 µM. Besides, in data set [3], the IC50 amounted to 16.8 µM. Besides, the IC50 in data set [4] turned out to be 0.263 µM. Besides, the IC50 in data set [5] came out at 0.369 µM. Also, the IC50 in data set [6] was 5.05 µM.
In turn, `COc1cc(CCc2cccc(OS(N)(=O)=O)c2)cc(OC)c1OC` [Compound A4-3, 3,4,5-trimethoxy-3′-sulfamate diphenylethane] yielded a melting point of 108.4 to 120.8 °C. The IC50 in data set [1] (CCK-8, 72 h) worked out at 27.1 µM. In data set [2] (A549, CCK-8, 72 h), the IC50 is 25.8 µM. In addition, the IC50 in data set [3] (CCK-8, 72 h) came to 52.5 µM. Further, in data set [4] (CCK-8, 72 h), the IC50 came out at 12 µM. Also, the IC50 in data set [5] (CCK-8, 72 h) amounted to 17.6 µM. In data set [6] (CCK-8, 72 h), the IC50 is 25.7 µM.
For `COc1ccc(/C=C\c2cc(OC)c(OC)c(OC)c2)cc1O` [CA-4, (Z)-3,4,5-trimethoxy-3′-hydroxy-4′-methoxystilbene, reference compound], the IC50 in data set [1] (CCK-8, 72 h) is 11.3 µM; in data set [2] (A549, CCK-8, 72 h), 5.99 µM; in data set [3] (CCK-8, 72 h) it was 9 µM; in data set [4] (CCK-8, 72 h) it was 16 µM; in data set [5] (CCK-8, 72 h), 3.44 µM; in data set [6] (CCK-8, 72 h), 1.76 µM.
For `COc1ccc(CCc2cc(OC)c(OC)c(OC)c2)cc1NS(N)(=O)=O` [Compound A5-3, 3,4,5-trimethoxy-4′-methoxy-3′-aminosulfamate diphenylethane], the melting point was in the range of 122.5 to 126.5 °C. Also, the IC50 in data set [1] (CCK-8, 72 h) amounted to 2.93 µM. In addition, in data set [2] (A549, CCK-8, 72 h), the IC50 was 12 µM. In addition, in data set [3] (CCK-8, 72 h), the IC50 turned out to be 30.6 µM. The IC50 in data set [4] (CCK-8, 72 h) was 8.1 µM. The IC50 in data set [5] (CCK-8, 72 h) is 8.21 µM. Further, the IC50 in data set [6] (CCK-8, 72 h) turned out to be 73.9 µM.
As for `CCOc1ccc(/C=C/c2cc(OC)c(OC)c(OC)c2)cc1OS(N)(=O)=O` [Compound A2-2, (E)-3,4,5-trimethoxy-4′-ethoxy-3′-sulfamate stilbene], the IC50 in data set [1] (CCK-8, 72 h) amounted to 5.64 µM; in data set [2] (A549, CCK-8, 72 h), 4.86 µM; in data set [3] (CCK-8, 72 h), 9.12 µM; in data set [4] (CCK-8, 72 h), 2.63 µM; in data set [5] (CCK-8, 72 h) it was 8.05 µM; in data set [6] (CCK-8, 72 h), 7.63 µM.
With `COc1ccc(/C=C\c2cc(OC)c(OC)c(OC)c2)cc1NS(N)(=O)=O` [Compound A5-1, (Z)-3,4,5-trimethoxy-4′-methoxy-3′-aminosulfamate stilbene], the melting point lay in the range of 143.3 to 146.7 °C. Further, the IC50 in data set [1] (CCK-8, 72 h) turned out to be 0.272 µM. In addition, the IC50 in data set [2] (A549, CCK-8, 72 h) turned out to be 0.299 µM. In data set [3] (CCK-8, 72 h), the IC50 was 3.29 µM. Also, the IC50 in data set [4] (CCK-8, 72 h) came to 0.752 µM. The IC50 in data set [5] (CCK-8, 72 h) stood at 0.5 µM. Also, the IC50 in data set [6] (CCK-8, 72 h) turned out to be 9.56 µM.
Consider `COc1cc(/C=C/c2cccc(OS(N)(=O)=O)c2)cc(OC)c1OC` [Compound A4-2, (E)-3,4,5-trimethoxy-3′-sulfamate stilbene], for which the melting point lay within 136.3 to 139.7 °C. In addition, the IC50 in data set [1] (CCK-8, 72 h) stood at 19 µM. The IC50 in data set [2] (A549, CCK-8, 72 h) amounted to 21.5 µM. The IC50 in data set [3] (CCK-8, 72 h) was 40.3 µM. Besides, in data set [4] (CCK-8, 72 h), the IC50 was 11.8 µM. In addition, the IC50 in data set [5] (CCK-8, 72 h) worked out at 27 µM. The IC50 in data set [6] (CCK-8, 72 h) came to 25 µM.
Take `COc1ccc(CCc2cc(OC)c(OC)c(OC)c2)cc1O` [Erianin, 3,4,5-trimethoxy-3′-hydroxy-4′-methoxydiphenylethane, reference compound]: the IC50 in data set [1] (CCK-8, 72 h) is 0.207 µM; in data set [2] (A549, CCK-8, 72 h), 0.22 µM; in data set [3] (CCK-8, 72 h) it was 6.29 µM; in data set [4] (CCK-8, 72 h), 0.237 µM; in data set [5] (CCK-8, 72 h), 0.425 µM; in data set [6] (CCK-8, 72 h), 0.449 µM.
As to `COc1ccc(CCc2cc(OC)c(OC)c(OC)c2)cc1OS(N)(=O)=O` [Compound A1-3, 3,4,5-trimethoxy-4′-methoxy-3′-sulfamate diphenylethane], the IC50 in data set [1] (CCK-8, 72 h) stood at 9.04 µM; in data set [2] (A549, CCK-8, 72 h), 15.8 µM; in data set [3] (CCK-8, 72 h), 3.08 µM; in data set [4] (CCK-8, 72 h) it was 1.14 µM; in data set [5] (CCK-8, 72 h) it was 11.9 µM; in data set [6] (CCK-8, 72 h), 3.61 µM. The IC50 in the data set on Tubulin amounted to 72.6 µM.
For `CCOc1ccc(CCc2cc(OC)c(OC)c(OC)c2)cc1OS(N)(=O)=O` [Compound A2-3, 3,4,5-trimethoxy-4′-ethoxy-3′-sulfamate diphenylethane], the melting point lay within 122.3 to 126.7 °C. Moreover, in data set [1] (CCK-8, 72 h), the IC50 is 2.93 µM. The IC50 in data set [2] (A549, CCK-8, 72 h) is 1.6 µM. For the same molecule, in data set [3] (CCK-8, 72 h), the IC50 was determined as 10.2 µM. The IC50 in data set [4] (CCK-8, 72 h) came to 3.65 µM. For the same molecule, the IC50 in data set [5] (CCK-8, 72 h) was found to be 7.67 µM. The IC50 in data set [6] (CCK-8, 72 h) turned out to be 3.59 µM.
`COc1cc(CCc2ccc(OC(F)F)c(OS(N)(=O)=O)c2)cc(OC)c1OC` [Compound A3-3] gave a melting point of 142.5 to 145.8 °C. Also, the IC50 in data set [1] (CCK-8, 72 h) turned out to be 35.6 µM. Also, the IC50 in data set [3] (CCK-8, 72 h) stood at 26.5 µM. Besides, the IC50 in data set [4] (CCK-8, 72 h) was 15.9 µM. Further, the IC50 in data set [5] (CCK-8, 72 h) came out at 23.3 µM. The IC50 in data set [6] (CCK-8, 72 h) worked out at 71.4 µM. Besides, the IC50 in the data set with Tubulin came out at 86.2 µM.
Take `COc1ccc(/C=C\c2cc(OC)c(OC)c(OC)c2)cc1OS(=O)(=O)N(C)C` [Compound A1-5, (Z)-3,4,5-trimethoxy-4′-methoxy-3′-N,N-dimethylsulfamate stilbene]: the melting point fell in the range of 102.7 to 105.6 °C. Further, in data set [1], the IC50 is 14.3 µM. Also, in data set [2] (A549, 72 h), the IC50 stood at 0.987 µM. Further, in data set [3], the IC50 came to 0.366 µM. Further, the IC50 in data set [4] came to 9.96 µM. Further, the IC50 in data set [5] amounted to 7.14 µM. In addition, the IC50 in data set [6] stood at 8.95 µM. In the data set on Tubulin, the IC50 turned out to be 3.1 µM.
